# Starred links: 1 amine or outer side, 2 acyl side, 3 side chain; linkers in the order of their positions; H or OH if unused. Non-standard residues stand in square brackets, D forms with d. Residues, ends and D or L forms follow the SMILES beside them. *: point of attachment. Dolaproine = CO[C@@H]([C@@H]1CCCN1)[C@@H](C)C(=O)O; Hexanoyl(6-maleimido) = O=C1C=CC(=O)N1CCCCCC(=O)*; Dil = CC[C@H](C)[C@H](NC)[C@@H](CC(=O)O)OC; PABC = O=C(OCc1ccc(N[*:1])cc1)[*:2]; X1 = C[C@@H](N*)[C@@H](O)c1ccccc1; Cit = NC(=O)NCCC[C@H](N)C(=O)O; NMeV = CN[C@H](C(=O)O)C(C)C
# Columns and labels:
# [1] = test system: acute myeloid leukemia (AML) at relapse; settings: administered alone; cited from earlier work
# [2] = test system: squamous NSCLC, Gastric (GEJ) cancer, HNSCC, NSCLC-adenocarcinoma, head & neck cancer-squamous, and breast cancer; settings: MMAE, Vinca, or both MMAE and Vinca; Vinca used if data for MMAE was not available; cited from earlier work
# bacteria = assay: Reverse mutation test in bacteria (Ames test)
# rats [3] = assay: Micronucleus test in rats; format: in vivo
# [4] = test system: L5178Y TK+/−mouse lymphoma; assay: L5178Y TK+/− mouse lymphoma mutation assay; format: cell-based
# [5] = Absorbance / phototoxicity assessment (ICH S10)
# monkeys = assay: Toxicity studies in monkeys; settings: sexually immature male monkeys, doses up to 6 mg/kg
# [6] = Comparability study: in vivo antitumor activity
# cynomolgus monkeys [7] = test system: cynomolgus monkeys
# [8] = Comparability study: in vitro cytotoxicity; format: cell-based
# rats [9] = assay: Toxicity studies in rats; format: in vivo
# [10] = test system: metastatic urothelial cancer; assay: EV-101 phase 1 dose escalation/expansion study; format: in vivo, human
# From the text: EV-101 is a phase 1 dose escalation/expansion study that enrolled patients with 191P4D12-expressing solid tumors, (eg, metastatic urothelial cancer [UC]), who progressed on ≥1 prior chemotherapy regimen, including a cohort of patients with metastatic UC who received prior anti-PD-(L)1 therapy.
# Enfortumab vedotin provided durable responses and meaningful survival results in patients after anti-PD-(L)-1 therapy in a population with a high unmet medical need. The confirmed ORR was 45% by a central review in patients who were treated with enfortumab vedotin 1.25 mg/kg. The median overall survival (OS) of 12.3 months is encouraging given the historical median OS is ≤10.3 months (Bellmunt J et al, N Eng J Med. 2017; 376(11):1015-1026).
# 191P4D12 = biological target: T1, 191P4D12 (Homo sapiens, UniProt Q96NY8); assay: Comparability study: binding affinity to 191P4D12
# T1 sequence (Q96NY8 32-510): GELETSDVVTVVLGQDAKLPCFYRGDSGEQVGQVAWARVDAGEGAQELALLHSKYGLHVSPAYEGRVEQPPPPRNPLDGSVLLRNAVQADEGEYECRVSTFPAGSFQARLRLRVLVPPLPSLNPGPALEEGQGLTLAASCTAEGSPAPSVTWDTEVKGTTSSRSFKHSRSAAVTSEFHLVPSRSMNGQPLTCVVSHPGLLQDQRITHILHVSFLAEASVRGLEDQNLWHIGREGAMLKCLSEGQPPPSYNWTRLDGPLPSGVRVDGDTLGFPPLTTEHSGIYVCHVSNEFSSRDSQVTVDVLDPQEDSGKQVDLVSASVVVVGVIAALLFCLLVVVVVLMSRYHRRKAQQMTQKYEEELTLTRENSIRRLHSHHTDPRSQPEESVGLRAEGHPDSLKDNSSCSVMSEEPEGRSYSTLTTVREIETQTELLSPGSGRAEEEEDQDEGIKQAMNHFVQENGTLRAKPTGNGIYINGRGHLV
# [11] = test system: patient-derived TNBC cell xenograft; assay: Patient-derived TNBC cell xenograft model; format: in vivo
# cynomolgus monkeys [12] = assay: Immunogenicity in cynomolgus monkeys; format: in vivo
# [13] = test system: patients who progressed after platinum chemotherapy and a PD-1/L1 inhibitor; assay: EV-201 pivotal phase 2 study; format: in vivo, human
# Experimental: In a pivotal phase 2 study (EV-201), patients must have had prior treatment with platinum-containing chemotherapy or be platinum-naïve and ineligible for cisplatin treatment. […] The confirmed ORR was 44% in patients treated with enfortumab vedotin 1.25 mg/kg. The median OS was 11.7 months and the median duration of response was 7.6 months.
# [14] = test system: patient-derived lung adenocarcinoma; assay: Tumor xenograft model, patient-derived lung adenocarcinoma; format: in vivo
# lung cancer xenografts = assay: Formation of lung cancer xenografts (subcutaneous mouse xenograft model); set-up: species or system SCID mice; settings: in vivo
# Experimental: (§1) Subcutaneous (s.c.) tumors are generated by injection of 5×10^4- 10^6 cancer cells mixed at a 1:1 dilution with Matrigel (Collaborative Research) in the right flank of male SCID mice. To test ADC efficacy on tumor formation, ADC injections are started on the same day as tumor-cell injections. As a control, mice are injected with either purified human IgG or PBS; or a purified MAb that recognizes an irrelevant antigen not expressed in human cells. In preliminary studies, no difference is found between control IgG or PBS on tumor growth. Tumor sizes are determined by caliper measurements, and the tumor volume is calculated as width^2×Length/2, wherein width is the smallest dimension and length is the largest dimension. Mice with subcutaneous tumors greater than 1.5 cm in diameter are sacrificed.
# [15] = test system: xenograft of human HR+breast cancer cell line; assay: Tumor xenograft model, human HR+ breast cancer cell line; format: in vivo; settings: 5 mg/kg every 4 days for 4 doses
# [16] = test system: human lung cancer xenograft AG-L4; assay: Efficacy in subcutaneous established human lung cancer xenograft AG-L4 in SCID mice; format: in vivo; settings: 10 mg/kg every seven days for two doses, intravenous bolus; compared to control ADC
# Experimental: In another experiment, patient-derived lung cancer xenograft AG-L4 was maintained by serial passages in SCID mice. Stock tumors were harvested sterilely and minced into 1 mm^3 pieces. Six (6) pieces were implanted into the flank of individual SCID mice. Tumors were allowed to grow untreated until they reached an approximate volume of 200 mm^3. The Ha22-2(2,4)6.1vcMMAE and the control ADC were dosed at 10 mg/kg every seven (7) days for two doses by intravenous bolus injection. The amount of ADC administered was based on the individual body weight of each animal obtained immediately prior to dosing. Tumor growth was monitored using caliper measurements every 3 to 4 days. Tumor volume was calculated as Width^2×Length/2, where width is the smallest dimension and length is the largest dimension.
# breast cancer xenografts = assay: Formation of breast cancer xenografts (subcutaneous mouse xenograft model); set-up: species or system SCID mice; settings: in vivo
# Experimental: as §1
# [17] = test system: human breast cancer xenograft BT-483; assay: Efficacy in subcutaneous established human breast cancer xenograft BT-483 in SCID mice; format: in vivo; settings: 5 mg/kg every four days for four doses, intravenous bolus; compared to control ADC
# Experimental: In this experiment, human breast cancer BT-483 cells were used to generate stock xenografts, which were maintained by serial passages in SCID mice. Stock tumors were harvested sterilely and minced into 1 mm^3 pieces. Six (6) pieces were implanted into the flank of individual SCID mice. Tumors were allowed to grow untreated until they reached an approximate volume of 100 mm^3. The Ha22-2(2,4)6.1vcMMAE and the control ADC were dosed at 5 mg/kg every four (4) days for four (4) doses by intravenous bolus injection. The amount of ADC administered was based on the individual body weight of each animal obtained immediately prior to dosing. Tumor growth was monitored using caliper measurements every 3 to 4 days. Tumor volume was calculated as Width^2×Length/2, where width is the smallest dimension and length is the largest dimension.
# [18] = test system: xenograft of a patient-derived bladder cancer; assay: Tumor xenograft model, patient-derived bladder cancer; format: in vivo; settings: in a dose-dependent manner
# [19] = test system: xenografts of human lung adenocarcinoma cell line; assay: Tumor xenograft model, human lung adenocarcinoma cell line; format: in vivo
# male and female rats = assay: Immunogenicity in rats; format: in vivo
# [20] = test system: cell line engineered to express human 191P4D12; assay: In vitro cell survival, engineered cell line; format: cell-based
molecule,measurement,setting,value
"CT-011: anti-PD-1 antibody, a humanized antibody",response,[1],failed to show response
"CC[C@H](C)[C@@H]([C@@H](CC(=O)N1CCC[C@H]1[C@H](OC)[C@@H](C)C(=O)N[C@H](C)[C@@H](O)c1ccccc1)OC)N(C)C(=O)[C@@H](NC(=O)[C@@H](NC)C(C)C)C(C)C [MMAE, monomethyl auristatin E] (H-[NMeV]V[Dil][Dolaproine]-X1)",sensitivity of the cancers to cytotoxicity,[2],sensitive to cytotoxicity
same,genotoxic potential,bacteria,no discernible genotoxic potential
same,chromosomal aberrations,rats [3],induce chromosomal aberrations
same,genotoxic potential,[4],no discernible genotoxic potential
same,absorbance in the range of 290 nm to 700 nm,[5],no absorbance
"CC[C@H](C)[C@@H]([C@@H](CC(=O)N1CCC[C@H]1[C@H](OC)[C@@H](C)C(=O)N[C@H](C)[C@@H](O)c1ccccc1)OC)N(C)C(=O)[C@@H](NC(=O)[C@H](C(C)C)N(C)C(=O)OCc1ccc(NC(=O)[C@H](CCCNC(N)=O)NC(=O)[C@@H](NC(=O)CCCCCN2C(=O)C=CC2=O)C(C)C)cc1)C(C)C [vc-MMAE, valine-citrulline linker-MMAE] ({Hexanoyl(6-maleimido)}-V[Cit][PABC][NMeV]V[Dil][Dolaproine]-X1)",absorbance against the criteria for phototoxicity testing as defined in the ICH S10 guidance,[5],did not meet the criteria for phototoxicity testing
enfortumab vedotin,testicular toxicity,monkeys,not observed
same,"comparability of in vivo antitumor activity, enfortumab vedotin versus AGS-22M6E",[6],confirmed
same,"safety profile, AGS-22M6E versus enfortumab vedotin",cynomolgus monkeys [7],comparable
same,"comparability of in vitro cytotoxicity, enfortumab vedotin versus AGS-22M6E",[8],confirmed
same,dose at which testicular toxicity (seminiferous tubule degeneration and hypospermia in the epididymis) was noted,rats [9],≥ 2.0 mg/kg
same,reversibility of testicular findings,rats [9]; end of a 24-week recovery period,partially reversed
same,median overall survival (OS),[10],12.3 months
same,confirmed ORR,"[10]; by a central review, 1.25 mg/kg, metastatic urothelial cancer after anti-PD-(L)-1 therapy",45%
same,"comparability of binding affinity to 191P4D12, enfortumab vedotin versus AGS-22M6E",191P4D12,confirmed
same,"pharmacological antitumor activity, enfortumab vedotin versus AGS-22M6E",[11],comparable
same,"immunogenicity, AGS-22M6E versus enfortumab vedotin",cynomolgus monkeys [12],comparable
same,median OS,[13],11.7 months
same,median duration of response,[13],7.6 months
same,confirmed ORR,[13]; 1.25 mg/kg,44%
same,photoreactivity / direct phototoxicity,[5]; concluded from absorbance of MMAE and vc-MMAE,not considered to be sufficiently photoreactive
"AGS-22M6E: ADC derived from a murine hybridoma cell line; antibody Ha22-2(2,4)6.1 conjugated to MMAE via vc linker","pharmacokinetics, AGS-22M6E versus enfortumab vedotin",cynomolgus monkeys [7],comparable
same,"safety profile, AGS-22M6E versus enfortumab vedotin",cynomolgus monkeys [7],comparable
same,tumor growth,[14],significantly inhibited tumor growth
same,formation of lung cancer xenografts,lung cancer xenografts,inhibits formation
same,tumor growth,[15],significantly inhibited the tumor growth
same,growth of AG-L4 lung cancer xenografts (tumor volume),[16],significantly inhibited the growth
same,formation of breast cancer xenografts,breast cancer xenografts,inhibits formation
same,growth of BT-483 breast tumor xenografts (tumor volume),[17],significantly inhibited the growth
same,tumor growth,[18],significantly inhibited the tumor growth
same,tumor growth,[19],significantly inhibited tumor growth
same,immunogenicity,male and female rats,moderately immunogenic
same,"pharmacological antitumor activity, enfortumab vedotin versus AGS-22M6E",[11],comparable
same,immunogenicity,cynomolgus monkeys [12],moderately immunogenic
same,"immunogenicity, AGS-22M6E versus enfortumab vedotin",cynomolgus monkeys [12],comparable
same,cell survival / cell growth,[20],inhibited cell survival
AGS-22M6,cell survival / cell growth,[20],did not affect cell growth

# — patent publication US20230001005A1, “TREATMENT OF CANCERS WITH ANTIBODY DRUG CONJUGATES (ADC) THAT BIND TO 191P4D12 PROTEINS” (AGENSYS, INC., priority 2019, published 2023)
